The subject of one data set is Colinus virginianus. The note with it: acute; oral; mortality.
The test system of another data set is Rattus norvegicus. The note with it: oral.
The next data set relates to Daphnia magna. The note with it: chronic/long-term; duration: 21 days; reproduction.
The subject of a further data set is Canidae. The conditions noted are these: chronic; duration: 1 years; oral; Dog Other; organ weight.
A further data set has as its system Typhlodromus pyri. The note with it: not reported; other.

This is an account of results in EPA's ToxValDB 9.5 (doi:10.2903/j.efsa.2010.1565).

Each structure is given as a SMILES string. ≈ marks a conversion by molar mass, not a printed value.

As for `CCN(CC)C(=O)C(C)Oc1cccc2ccccc12` (configuration not stated) [Napropamide], the LC50 is 6.6 µg/mL (≈ 24.3 µM) in the data set on Oncorhynchus mykiss (acute, duration: 96 hours, mortality); more than 1570 mg/kg-day in the data set on Anas platyrhynchos (short-term, oral, feed, mortality); 564 mg/kg in the data set on Tagia sp. (acute, duration: 14 days, mortality). Also, the NOEC with Oncorhynchus mykiss (chronic/long-term, duration: 28 days, growth) came out at 1.1 mg/L; in the data set with Daphnia magna it was 4.3 mg/L; with Tagia sp. (chronic/long-term, reproduction) it was 60 mg/kg. For the same molecule, the LD50 is more than 2250 mg/kg with Colinus virginianus and 4680 mg/kg in the data set with Rattus norvegicus (acute, mortality). This molecule yielded an NOEL in the data set on Anas platyrhynchos (reproductive, reproduction) of 309 mg/kg-day. For the same molecule, the NOAEL with Rattus norvegicus (chronic, duration: 2 years, body weight) is 30 mg/kg-day; with Canidae, 50 mg/kg-day. In the data set on Typhlodromus pyri, this molecule gave an LEL of 4500 g/ha.
